In patent US8435762B2, “Chimeric ligand-gated ion channels and methods of use thereof” (Howard Hughes Medical Institute, priority 2008, dated 2013):
“Also recorded” adds a separate entry of the source. Where a name gives a salt, the structure may show the parent alone.

Legend:
α7-5HT3 L141F = target: T1, α7-5HT3 L141F (Homo sapiens, UniProt P36544, L141F/M226I/T225I); assay: fluorescence membrane potential (MP) assay, HEK 293 cells; type: cell-based, human/mouse; conditions: read-out: EC50-MP; α7 L141F, IPD 5HT3; value (s.e.m.)
T1 construct: expressed in transfected cells; host or cells: HEK 293 cells (ATCC CRL-1573)

[1] = target: T2, α7-5HT3 wt chimeric receptor (Homo sapiens, UniProt P36544, M226I/T225I); assay: as above; type: cell-based, human/mouse; conditions: for activity against α7-5HT3 wt (unmodified) receptor: dose response curves, MP assay; for EC50: read-out: EC50-MP, α7 wt, IPD 5HT3, value (s.e.m.)
T2 construct: expressed in transfected cells; host or cells: HEK 293 cells

α7-5HT3 W77F [2] = target: T3, α7-5HT3 W77F (Homo sapiens, UniProt P36544, M226I/T225I/W77F); assay: whole cell voltage clamp recordings (Iss, Ipeak); type: cell-based, human/mouse
T3 construct: expressed in transfected cells; host or cells: HEK 293 cells (ATCC CRL-1573)

α7-5HT3 W77F [3] = target: T3, α7-5HT3 W77F; assay: fluorescence membrane potential (MP) assay, HEK 293 cells; type: cell-based, human/mouse
α7-5HT3 Q79G Q139M = target: T4, α7-5HT3 Q79G Q139M (Homo sapiens, UniProt P36544, M226I/Q139M/Q79G/T225I); assay: as above; type: cell-based, human/mouse
T4 construct: expressed in transfected cells

α7-GlyR L141F = target: T5, α7-GlyR L141F (Homo sapiens, UniProt P36544, L141F); assay: whole cell voltage clamp recordings (Iss, Ipeak); type: cell-based; conditions: IPD GlyR
T5 construct: expressed in transfected cells; host or cells: HEK 293 cells (A15); cortical neurons transduced with AAV, synapsin promoter (A22)

α7-5HT3 Q79G [4] = target: T6, α7-5HT3 Q79G (Homo sapiens, UniProt P36544, M226I/Q79G/T225I); assay: fluorescence membrane potential (MP) assay, HEK 293 cells; type: cell-based, human/mouse; conditions: read-out: EC50-MP; α7 Q79G, IPD 5HT3; value (s.e.m.)
T6 construct: expressed in transfected cells; host or cells: HEK 293 cells (ATCC CRL-1573)

α7-5HT3 Q79G [5] = target: T6, α7-5HT3 Q79G; assay: whole cell voltage clamp recordings (Iss, Ipeak); type: cell-based, human/mouse
[6] = target: T2, α7-5HT3 wt chimeric receptor; assay: whole cell voltage clamp recordings (Iss, Ipeak); type: cell-based, human/mouse
α7-5HT3 Y115F = target: T7, α7-5HT3 Y115F (Homo sapiens, UniProt P36544, M226I/T225I/Y115F); assay: efficacy on ACh-insensitive mutant; type: cell-based, human/mouse
T7 construct: expressed in transfected cells; host or cells: not restated

α7-5HT3 Y210F = target: T8, α7-5HT3 Y210F (Homo sapiens, UniProt P36544, M226I/T225I/Y210F); assay: efficacy on ACh-insensitive mutant; type: cell-based, human/mouse
T8 construct: expressed in transfected cells; host or cells: not restated

[7] = read-out: EC50-Ipeak, peak current, IPD 5HT3
[8] = read-out: EC50-Iss, steady state current, IPD 5HT3
[9] = EC50-Ipeak, peak current, *complex: multiphasic dose response

T5 sequence (P36544 with tags, fused parts or gaps L141F): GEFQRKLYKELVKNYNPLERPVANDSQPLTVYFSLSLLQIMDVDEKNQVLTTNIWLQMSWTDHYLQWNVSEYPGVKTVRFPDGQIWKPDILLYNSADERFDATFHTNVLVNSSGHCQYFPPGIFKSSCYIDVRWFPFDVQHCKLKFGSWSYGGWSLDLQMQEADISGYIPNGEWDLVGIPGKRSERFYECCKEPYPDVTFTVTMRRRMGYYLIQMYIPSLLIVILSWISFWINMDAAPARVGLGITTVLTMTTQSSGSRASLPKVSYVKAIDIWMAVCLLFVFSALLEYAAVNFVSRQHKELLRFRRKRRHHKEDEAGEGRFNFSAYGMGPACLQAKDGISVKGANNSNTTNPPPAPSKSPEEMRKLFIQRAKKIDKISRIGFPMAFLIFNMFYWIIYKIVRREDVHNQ
T3 sequence (P36544 with tags, fused parts or gaps W77F/T225I/M226I): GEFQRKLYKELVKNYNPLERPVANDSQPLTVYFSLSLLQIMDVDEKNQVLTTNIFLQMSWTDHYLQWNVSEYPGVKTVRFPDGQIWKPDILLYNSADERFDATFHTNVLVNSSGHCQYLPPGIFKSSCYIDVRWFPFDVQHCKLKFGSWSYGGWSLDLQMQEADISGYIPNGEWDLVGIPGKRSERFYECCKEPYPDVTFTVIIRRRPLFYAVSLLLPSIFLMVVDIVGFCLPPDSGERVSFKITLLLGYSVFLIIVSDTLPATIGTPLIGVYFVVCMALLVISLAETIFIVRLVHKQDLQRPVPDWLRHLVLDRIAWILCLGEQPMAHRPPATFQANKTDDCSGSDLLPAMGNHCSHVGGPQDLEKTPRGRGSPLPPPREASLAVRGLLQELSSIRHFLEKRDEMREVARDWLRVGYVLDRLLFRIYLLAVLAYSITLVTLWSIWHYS
T6 sequence (P36544 with tags, fused parts or gaps Q79G/T225I/M226I): as the sequence (P36544 with tags, fused parts or gaps W77F/T225I/M226I) above, with F55W, Q57G counted along it
T1 sequence (P36544 with tags, fused parts or gaps L141F/T225I/M226I): as the sequence (P36544 with tags, fused parts or gaps W77F/T225I/M226I) above, with F55W, L119F counted along it
T2 sequence (P36544 with tags, fused parts or gaps T225I/M226I): as the sequence (P36544 with tags, fused parts or gaps W77F/T225I/M226I) above, with F55W counted along it
T4 sequence (P36544 with tags, fused parts or gaps Q79G/Q139M/T225I/M226I): as the sequence (P36544 with tags, fused parts or gaps W77F/T225I/M226I) above, with F55W, Q57G, Q117M counted along it
T8 sequence (P36544 with tags, fused parts or gaps Y210F/T225I/M226I): as the sequence (P36544 with tags, fused parts or gaps W77F/T225I/M226I) above, with F55W, Y188F counted along it
T7 sequence (P36544 with tags, fused parts or gaps Y115F/T225I/M226I): as the sequence (P36544 with tags, fused parts or gaps W77F/T225I/M226I) above, with F55W, Y93F counted along it

## COc1ccccc1C(=O)N[C@@H]1CN2CCC1CC2 [Compound 19S, (S)-2-methoxy-N-(quinuclidin-3-yl)benzamide]
α7-5HT3 L141F
  EC50: 1400 nM
[1]
  activity against α7-5HT3 wt (unmodified) receptor: did not induce activate

## O=C(N[C@@H]1CN2CCC1CC2)c1ccc(-c2ccccc2)cc1 [Compound 28S, (S)—N-(quinuclidin-3-yl)biphenyl-4-carboxamide TFA]
α7-5HT3 W77F [2]; [7]
  EC50: 11300 nM
α7-5HT3 W77F [2]; [8]
  EC50: 2400 nM
[1]
  activity against α7-5HT3 wt (unmodified) receptor: did not induce activate

## O=C(N[C@@H]1CN2CCC1CC2)c1ccc(-c2cccs2)cc1 [Compound 34S, (S)—N-(quinuclidin-3-yl)-4-(thiophen-2-yl)benzamide]
α7-5HT3 W77F [3]; α7 W77F, IPD 5HT3; value (s.e.m.); read-out: EC50-MP
  EC50: 1400 nM
[1]
  activity against α7-5HT3 wt (unmodified) receptor: did not induce activate

## CS(=O)(=O)c1ccc(C(=O)N[C@H]2CN3CCC2CC3)cc1 [Compound 38R, (R)-4-(methylsulfonyl)-N-(quinuclidin-3-yl)benzamide TFA]
α7-5HT3 Q79G Q139M; EC50MP
  fold improvement in potency (EC50), α7-5HT3 Q79G Q139M relative to α7-5HT3 Q79G: 8 fold
α7-5HT3 Q79G Q139M; read-out: EC50-MP, α7 Q79G Q139M, IPD 5HT3, value (s.e.m.)
  EC50: 230 ± 70 nM
[1]; TFA
  activity against α7-5HT3 wt (unmodified) receptor: no activity; also recorded: did not induce activate

## COc1ccc(C(=O)N[C@@H]2CN3CCC2CC3)c(OC)c1 [Compound 88S, (S)-2,4-dimethoxy-N-(quinuclidin-3-yl)benzamide]
α7-5HT3 L141F
  EC50: 100 ± 100 nM
[1]
  activity against α7-5HT3 wt (unmodified) receptor: no activity

## COc1ccc(Cl)cc1C(=O)N[C@@H]1CN2CCC1CC2 [Compound 118S, (S)-5-chloro-2-methoxy-N-(quinuclidin-3-yl)benzamide TFA]
α7-GlyR L141F; [9]
  EC50: 3200 nM
α7-GlyR L141F; EC50-Iss, steady state current
  EC50: 3000 nM

## COc1ccc(F)cc1C(=O)N[C@@H]1CN2CCC1CC2 [Compound 119S, (S)-5-fluoro-2-methoxy-N-(quinuclidin-3-yl)benzamide TFA]
α7-GlyR L141F; [9]
  EC50: 3800 nM
α7-GlyR L141F; EC50-Iss, steady state current
  EC50: 2500 nM

## O=C(N[C@@H]1CN2CCC1CC2)c1ccc(-c2ccc(F)cc2)cc1 [Compound 132S, (S)-4′-fluoro-N-(quinuclidin-3-yl)biphenyl-4-carboxamide TFA]
α7-5HT3 W77F [3]; FIG. 5 dose response curves
  selective activation of α7-5HT3 W77F over receptors with Q79G and L141F mutations: selectively activated
α7-5HT3 W77F [3]; read-out: EC50-MP; α7 W77F, IPD 5HT3; value (s.e.m.)
  EC50: 4300 ± 500 nM

## CCCc1ccc(C(=O)N[C@@H]2CN3CCC2CC3)cc1 [Compound 165S, (S)-4-propyl-N-(quinuclidin-3-yl)benzamide TFA]
α7-5HT3 Q79G [4]
  EC50: 1900 nM
α7-5HT3 Q79G [5]; [7]
  EC50: 5900 nM
α7-5HT3 Q79G [5]; [8]
  EC50: 900 nM

## c1ccc2c(c1)CC1C(=NN2)C2CCN1CC2 (centres unmarked) [Compound 212]
α7-5HT3 Q79G [4]
  EC50: > 100000 nM
α7-5HT3 L141F
  EC50: 750 nM
[1]
  EC50: > 100000 nM

## O=C(N[C@H]1CN2CCC1CC2)c1ccc(Cl)cc1 [PNU-282987]
[6]; peak current, IPD 5HT3, read-out: EC50-Ipeak
  EC50: 800 nM
[6]; steady state current, IPD 5HT3, read-out: EC50-Iss
  EC50: 90 nM
α7-5HT3 Y115F
  efficacy with α7-5HT3 carrying Y115F: greatly reduced or eliminated
α7-5HT3 Y210F
  efficacy with α7-5HT3 carrying Y210F: greatly reduced or eliminated
[1]
  EC50: 60 nM
